Results: PMC3866693 (Journal of medicinal chemistry, 2013)
Blank lines part the entries; values can stand above or below the compound they belong to.

Assays:
human mGluR1 [1] = details: VS = fP × Bmax/KD; cited from earlier work
rat mGluR1 = details: VS = fP × Bmax/KD; cited from earlier work
human mGluR1 [2] = details: read-out: IC50 (affinity for mGluR1); human mGluR1, reported; cited from earlier work
mGluR1 in monkey brain [3] = experiment: PET baseline experiment in rhesus monkey, brain radioactivity uptake; format: in vivo, rhesus monkey (Macaca mulatta)
mGluR5 = mGluR5 (Rattus norvegicus, UniProt P31424); experiment: stimulation of phosphoinositide hydrolysis, cloned rat receptors; format: cell-based; details: 10 μM
NMDA = experiment: NIMH PDSP binding screen; set-up: species or system human
mGluR1 = mGluR1 (Rattus norvegicus, UniProt P23385); experiment: stimulation of phosphoinositide hydrolysis, cloned rat receptors; format: cell-based; details: 10 μM
rat BZP site = experiment: NIMH PDSP binding screen
GABAA = experiment: NIMH PDSP binding screen; set-up: species or system human
[4] = compared with 7; cited from earlier work
mGluR1 in monkey brain [5] = target: mGluR1 in monkey brain (Macaca mulatta, UniProt I2CU04); experiment: PET preblock and challenge experiments with mGluR1 antagonist in rhesus monkey; format: in vivo, rhesus monkey (Macaca mulatta)
mGluR5 in monkey brain = mGluR5 in monkey brain (Macaca mulatta, UniProt A0ACM8QRY8); experiment: PET challenge experiment with mGluR5-selective ligand in rhesus monkey; format: in vivo, rhesus monkey (Macaca mulatta); details: 5 mg/kg i.v. at 30 min after [^18F]11, third monkey
mGluR5 in monkey brain, sequence (A0ACM8QRY8 19-1212): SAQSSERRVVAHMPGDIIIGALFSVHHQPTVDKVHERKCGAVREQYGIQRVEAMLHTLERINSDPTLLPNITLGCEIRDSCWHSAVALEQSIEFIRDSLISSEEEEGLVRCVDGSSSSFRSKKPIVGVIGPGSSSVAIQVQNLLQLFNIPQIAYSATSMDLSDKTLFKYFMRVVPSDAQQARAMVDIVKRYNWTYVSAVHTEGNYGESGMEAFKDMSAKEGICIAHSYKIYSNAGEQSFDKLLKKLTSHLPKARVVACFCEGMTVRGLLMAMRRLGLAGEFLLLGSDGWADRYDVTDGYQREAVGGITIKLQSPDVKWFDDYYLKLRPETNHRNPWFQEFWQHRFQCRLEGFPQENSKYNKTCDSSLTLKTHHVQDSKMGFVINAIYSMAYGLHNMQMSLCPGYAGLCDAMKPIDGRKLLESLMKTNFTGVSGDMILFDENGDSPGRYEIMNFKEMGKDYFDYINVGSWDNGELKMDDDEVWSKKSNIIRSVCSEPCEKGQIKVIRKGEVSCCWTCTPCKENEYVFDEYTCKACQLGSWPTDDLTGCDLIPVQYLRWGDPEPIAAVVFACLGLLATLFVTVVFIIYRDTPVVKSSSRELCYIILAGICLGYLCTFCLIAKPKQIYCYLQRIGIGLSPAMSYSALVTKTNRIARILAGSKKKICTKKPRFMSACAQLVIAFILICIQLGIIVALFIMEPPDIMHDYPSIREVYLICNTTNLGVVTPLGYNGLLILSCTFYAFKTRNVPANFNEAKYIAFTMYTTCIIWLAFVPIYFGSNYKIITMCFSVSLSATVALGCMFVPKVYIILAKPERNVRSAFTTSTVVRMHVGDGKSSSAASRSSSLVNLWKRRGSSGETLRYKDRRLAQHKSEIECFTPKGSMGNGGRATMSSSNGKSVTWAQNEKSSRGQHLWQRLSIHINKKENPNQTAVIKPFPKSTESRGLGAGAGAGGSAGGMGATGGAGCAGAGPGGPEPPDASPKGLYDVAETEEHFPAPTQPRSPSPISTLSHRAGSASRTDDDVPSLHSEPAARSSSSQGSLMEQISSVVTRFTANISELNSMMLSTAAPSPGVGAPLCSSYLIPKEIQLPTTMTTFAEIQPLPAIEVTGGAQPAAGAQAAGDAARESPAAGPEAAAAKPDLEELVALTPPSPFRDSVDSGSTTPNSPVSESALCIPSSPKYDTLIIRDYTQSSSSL

mGluR1 in monkey brain (Macaca mulatta, UniProt I2CU04), sequence (I2CU04 19-1195): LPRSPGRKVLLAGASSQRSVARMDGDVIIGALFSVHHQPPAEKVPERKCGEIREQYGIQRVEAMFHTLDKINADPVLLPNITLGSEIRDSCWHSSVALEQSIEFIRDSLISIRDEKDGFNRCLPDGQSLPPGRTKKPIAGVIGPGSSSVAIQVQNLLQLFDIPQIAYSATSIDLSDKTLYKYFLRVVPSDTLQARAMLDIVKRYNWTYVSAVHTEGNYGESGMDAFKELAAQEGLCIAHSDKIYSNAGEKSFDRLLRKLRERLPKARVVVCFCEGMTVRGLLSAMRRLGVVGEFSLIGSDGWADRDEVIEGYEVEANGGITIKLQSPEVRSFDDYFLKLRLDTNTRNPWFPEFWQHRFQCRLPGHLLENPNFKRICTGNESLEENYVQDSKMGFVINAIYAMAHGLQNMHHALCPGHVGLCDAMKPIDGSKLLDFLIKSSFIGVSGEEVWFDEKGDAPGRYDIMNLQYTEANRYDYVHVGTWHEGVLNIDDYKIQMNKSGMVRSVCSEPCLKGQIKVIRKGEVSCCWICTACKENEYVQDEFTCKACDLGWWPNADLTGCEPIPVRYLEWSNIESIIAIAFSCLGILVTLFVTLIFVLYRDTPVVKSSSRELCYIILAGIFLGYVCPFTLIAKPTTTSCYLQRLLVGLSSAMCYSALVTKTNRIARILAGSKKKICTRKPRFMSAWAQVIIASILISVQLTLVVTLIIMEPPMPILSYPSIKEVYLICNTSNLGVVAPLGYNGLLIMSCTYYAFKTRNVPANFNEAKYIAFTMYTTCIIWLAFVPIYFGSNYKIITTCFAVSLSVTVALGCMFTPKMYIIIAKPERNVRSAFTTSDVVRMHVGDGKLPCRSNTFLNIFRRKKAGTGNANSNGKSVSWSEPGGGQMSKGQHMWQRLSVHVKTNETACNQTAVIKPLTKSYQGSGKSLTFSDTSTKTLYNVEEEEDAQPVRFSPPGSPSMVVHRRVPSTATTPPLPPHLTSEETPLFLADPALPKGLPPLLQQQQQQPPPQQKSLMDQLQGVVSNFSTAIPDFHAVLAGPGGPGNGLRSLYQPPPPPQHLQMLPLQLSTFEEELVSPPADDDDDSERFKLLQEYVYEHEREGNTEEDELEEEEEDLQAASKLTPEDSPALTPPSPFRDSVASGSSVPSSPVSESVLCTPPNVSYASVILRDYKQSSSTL
mGluR5, sequence (P31424 21-1203): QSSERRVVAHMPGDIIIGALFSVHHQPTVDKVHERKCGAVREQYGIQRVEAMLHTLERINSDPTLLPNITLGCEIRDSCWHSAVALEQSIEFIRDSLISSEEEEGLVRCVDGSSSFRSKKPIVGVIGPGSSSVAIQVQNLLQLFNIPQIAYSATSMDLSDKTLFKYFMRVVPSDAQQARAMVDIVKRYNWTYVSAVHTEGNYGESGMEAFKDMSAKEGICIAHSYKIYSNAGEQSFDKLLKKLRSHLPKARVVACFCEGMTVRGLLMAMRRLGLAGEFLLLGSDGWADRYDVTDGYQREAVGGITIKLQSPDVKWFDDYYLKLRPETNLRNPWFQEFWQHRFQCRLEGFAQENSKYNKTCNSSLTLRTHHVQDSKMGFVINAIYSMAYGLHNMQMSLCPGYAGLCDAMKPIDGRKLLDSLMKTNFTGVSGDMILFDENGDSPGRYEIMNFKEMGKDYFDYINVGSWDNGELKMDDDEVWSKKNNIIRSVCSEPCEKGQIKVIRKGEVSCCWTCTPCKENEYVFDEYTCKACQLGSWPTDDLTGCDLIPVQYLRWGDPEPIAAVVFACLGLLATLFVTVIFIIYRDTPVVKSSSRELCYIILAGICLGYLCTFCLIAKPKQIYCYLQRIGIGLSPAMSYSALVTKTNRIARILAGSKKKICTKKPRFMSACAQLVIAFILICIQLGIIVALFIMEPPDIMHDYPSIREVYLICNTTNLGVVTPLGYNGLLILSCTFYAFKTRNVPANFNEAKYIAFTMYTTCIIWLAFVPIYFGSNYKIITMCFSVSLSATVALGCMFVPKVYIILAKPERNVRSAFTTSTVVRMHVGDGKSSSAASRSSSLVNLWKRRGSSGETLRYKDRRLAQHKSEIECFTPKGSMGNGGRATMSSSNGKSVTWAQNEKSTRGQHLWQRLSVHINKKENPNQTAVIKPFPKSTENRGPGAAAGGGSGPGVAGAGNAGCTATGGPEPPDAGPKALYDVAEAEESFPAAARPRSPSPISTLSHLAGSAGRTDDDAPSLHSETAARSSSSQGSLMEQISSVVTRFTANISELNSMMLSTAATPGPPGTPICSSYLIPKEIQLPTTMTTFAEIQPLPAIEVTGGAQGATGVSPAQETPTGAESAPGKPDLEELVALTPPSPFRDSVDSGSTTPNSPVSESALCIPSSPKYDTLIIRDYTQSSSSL
mGluR1, sequence (P23385 19-1199): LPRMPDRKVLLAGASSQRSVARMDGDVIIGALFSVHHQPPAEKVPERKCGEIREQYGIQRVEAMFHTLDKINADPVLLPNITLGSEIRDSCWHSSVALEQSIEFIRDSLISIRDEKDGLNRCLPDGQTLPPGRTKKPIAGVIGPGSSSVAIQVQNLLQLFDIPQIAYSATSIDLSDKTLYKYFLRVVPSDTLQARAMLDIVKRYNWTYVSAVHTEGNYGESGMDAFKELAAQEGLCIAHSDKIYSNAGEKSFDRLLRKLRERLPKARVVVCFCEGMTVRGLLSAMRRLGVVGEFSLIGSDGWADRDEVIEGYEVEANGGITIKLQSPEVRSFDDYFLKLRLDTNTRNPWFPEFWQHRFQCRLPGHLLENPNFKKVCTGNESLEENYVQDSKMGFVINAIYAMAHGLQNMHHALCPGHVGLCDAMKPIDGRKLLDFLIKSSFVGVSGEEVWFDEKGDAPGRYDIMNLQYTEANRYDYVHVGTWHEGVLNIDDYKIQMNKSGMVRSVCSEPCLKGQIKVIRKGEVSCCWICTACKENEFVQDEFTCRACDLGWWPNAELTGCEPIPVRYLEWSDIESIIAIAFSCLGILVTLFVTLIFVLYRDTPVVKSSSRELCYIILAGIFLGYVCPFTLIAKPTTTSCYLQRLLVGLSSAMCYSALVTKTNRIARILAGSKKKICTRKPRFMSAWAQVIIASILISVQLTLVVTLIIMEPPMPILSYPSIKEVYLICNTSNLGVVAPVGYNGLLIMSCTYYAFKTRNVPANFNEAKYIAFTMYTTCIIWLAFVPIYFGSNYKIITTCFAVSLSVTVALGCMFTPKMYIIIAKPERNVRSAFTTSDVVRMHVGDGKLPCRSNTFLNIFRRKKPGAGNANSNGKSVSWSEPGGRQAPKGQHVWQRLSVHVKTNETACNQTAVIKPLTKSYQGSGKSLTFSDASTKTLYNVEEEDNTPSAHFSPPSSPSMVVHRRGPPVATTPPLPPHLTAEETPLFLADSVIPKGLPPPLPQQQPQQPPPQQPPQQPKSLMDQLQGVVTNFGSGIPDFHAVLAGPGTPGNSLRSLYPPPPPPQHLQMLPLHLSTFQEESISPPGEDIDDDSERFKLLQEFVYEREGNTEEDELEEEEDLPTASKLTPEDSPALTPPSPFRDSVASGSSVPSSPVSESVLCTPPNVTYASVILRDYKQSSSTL

Compound: Cc1c(-c2ccc(O[11CH3])cc2)nsc1NC(=O)[C@@H]1C[C@H]1C [[^11C]6]
effective binding potential (VS) (human mGluR1 [1]): 0.0161
effective binding potential (VS) (rat mGluR1): 0.683

Compound: CC(C)Nc1cc(-c2csc(N(C)C(=O)c3ccc(F)cc3)n2)ncn1 [[^18F]7, reference compound]
IC50 (human mGluR1 [2]): 5.1 nM

Compound: Cc1nc(C#Cc2cccnc2)cs1 [compound 18, 3-((2-methyl-4-thiazolyl)ethynyl)pyridine]
effect on [^18F]11 brain washout kinetics after challenge (mGluR5 in monkey brain): no change in the washout kinetics from any brain region

Second part, led by results:

radiodefluorination (radioactivity uptake in skull) (mGluR1 in monkey brain [3]; all PET experiments in monkey): negligible
Compound: CNc1cc(-c2csc(N(C)C(=O)c3ccc([18F])cc3)n2)ncn1 [[^18F]11, [^18F]4-Fluoro-N-methyl-N-(4-(6-(methylamino)pyrimidin-4-yl)thiazol-2-yl)benzamide]
decrease of cerebellum radioactivity from peak (mGluR1 in monkey brain [3]; baseline, at end of 2-h scan (120 min)): 47%

efficacy at mGluR5 (stimulation of phosphoinositide hydrolysis) (mGluR5): antagonist
Ki (NMDA): > 10000 nM
efficacy at mGluR1 (stimulation of phosphoinositide hydrolysis) (mGluR1): antagonist
Ki (rat BZP site): > 10000 nM
Ki (GABAA): > 10000 nM
Compound: CNc1cc(-c2csc(N(C)C(=O)c3ccc(F)cc3)n2)ncn1 [compound 11, 4-Fluoro-N-methyl-N-(4-(6-(methylamino)pyrimidin-4-yl)thiazol-2-yl)benzamide]
IC50 (human mGluR1 [2]): 1.8 nM
extent of metabolism in human liver microsomes [4]: metabolized more extensively than 7

distribution of [^18F]11 radioactivity across brain after preblock (mGluR1 in monkey brain [5]; 3 mg/kg i.v. at 5 min before [^18F]11): low and uniform
Compound: CO[C@H]1CC[C@@H](C(=O)c2ccc3nc4c(cc3c2)CCCO4)CC1 [compound 17]
effect on [^18F]11 brain radioactivity after challenge (mGluR1 in monkey brain [5]; 3 mg/kg i.v. at 30 min after [^18F]11, second monkey): rapid decrease in radioactivity at all mGluR1-containing regions
